“Also recorded” adds a separate entry of the source. Read-outs that look alike come from different tables or passages of the source.
Key:
[1] = tested on: ic-SARS-COV-2-mNeon infection in Huh7 cells; assay type: cell-based, human; settings: for inhibition of ic-SARS-COV-2-mNeon infection by supernatant of stimulated human iNKT cells: 1 μg/mL lipid, iNKT + HeLa-hCD1d 24 h, supernatant on Huh7 cells
human RSV A2 strain = assay type: in vivo, BALB/c mice; settings: 2 μg IN 2 days prior, 600,000 pfu RSV A2
[2] = tested on: influenza A virus (H1N1) PR/8/34 (PR8) strain; test: Influenza A PR8 challenge of C57BL/6 mice; assay type: in vivo
SARS-COV-2 (USA/WA1) = test: Direct antiviral effect against SARS-COV-2 in Vero E6 cells (CPE); assay type: cell-based; settings: Vero E6, MOI 0.1, 70 h
Method: After 30 min, SARS-COV-2 (USA/WA1) was added to each well to final MOI 0.1. Cells were incubated at 37 °C/5% CO2 for 70 h prior to scoring CPE. Percent inhibition was calculated from fold reduction in CPE over control wells receiving no drug. Remdesivir (RDV) was used as a positive control for the assay. Phosphatidylethanolamine (PE) and Biotin-phosphatidylethanolamine (B-PE) were used as a negative control. […] C57BL/6 mice (N=10) were given 2 μg of 7DW8-5 or saline by IN route 2 days before intranasal challenge with 5,000 pfu (lethal dose) of the PR8 strain. Kaplan-Meier Survival curve was plotted.

cytokines/chemokines = test: Cytokine/chemokine 31-Plex profile after intranasal administration; assay type: in vivo, BALB/c mice; settings: 2 μg IN; one day after; BAL, nasal turbinate and lung homogenates, sera
IFNγ = assay type: in vivo, BALB/c mice; settings: 2 μg IN; 24 h; nasal turbinate and lung homogenate supernatants, sera
lung mononuclear cells = test: Single-cell gene-expression analysis of lung mononuclear cells; assay type: in vivo, BALB/c mice; settings: 2 μg IN; 24 h; lung CD45+ cells
splenocytes [3] = test: IFN-γ-secreting splenocytes in response to glycolipids in culture (mouse); assay type: cell-based
Excerpt: (§1) FIGS. 12A-B show relative number of IFN-γ-secreting splenocytes in hamster versus mouse in response to glycolipids in culture.
(§2) The relative number of IFN-γ-secreting splenocytes in hamster versus mouse in response to glycolipids in culture are shown in FIGS. 12A-B. 7DW8-5 administration affects IFN-γ-secreting splenocyte numbers in hamsters as shown in FIG. 12A. Cytokine induction

splenocytes [4] = test: IFN-γ-secreting splenocytes in response to glycolipids in culture (hamster); assay type: cell-based
Excerpt: as §1, §2

[5] = Toxicity noted in mice in the current study; assay type: in vivo
Excerpt: (§3) Without being bound by theory, 7DW8-5 can be an agent for pre-exposure prophylaxis to prevent infections by SARS-COV-2, RSV, influenza virus, and possibly other clinically important respiratory viruses. It is a chemical compound that is thermostable and thus simple to ship and store, cheap to manufacture, and easy to administer intranasally. It is expected that 7DW8-5 is similarly effective in people. […] Second, iNKT cells constitute up to 1% of peripheral blood mononuclear cells in both humans and mice^38,39, although the variability is greater among humans^38.

[6] = Toxicity noted in hamsters in the current study; assay type: in vivo
Excerpt: as §3

Thermostability (stated) = assay type: physicochemical; settings: stated in discussion, no test described
[7] = up to 100 μg intramuscularly; cited from earlier work
mouse iNKT cells = mouse iNKT cells in vitro; cited from earlier work
human iNKT cells = human iNKT cells in vitro; cited from earlier work
[8] = 6 IV doses of 0.12 mg/kg, cancer patients; cited from earlier work

CCCCCCCC/C=C\CCCCCCCC(=O)OC[C@H](COP(=O)(O)OCCNC(=O)CCCCCN)OC(=O)CCCCCCC/C=C\CCCCCCCC [1,2-dioleoyl-sn-glycero-3-phosphoethanolamine-N-(hexanoylamine), reference compound]
inhibition of ic-SARS-COV-2-mNeon infection by supernatant of stimulated human iNKT cells [1]: not

CCCCCCCCCCCCCC[C@@H](O)[C@@H](O)[C@H](CO[C@H]1O[C@H](CO)[C@H](O)[C@H](O)[C@H]1O)NC(=O)CCCCCCCCCCc1ccc(F)cc1 [7DW8-5]
body weight (human RSV A2 strain): significantly prevented weight loss | virus replication in lung tissues (human RSV A2 strain; day 4, TCID50 in Hep2 cells): inhibited virus replication; also recorded: decreased | body weight ([2]; 2 μg IN 2 days prior, 5,000 pfu PR8, day 3): significantly maintained body weight | body weight loss ([2]; 2 μg IN one day before 200 pfu PR8, day 3 (FIG. 7)): lack of body weight loss | body weight loss ([2]; 2 μg IN, 5000 pfu PR8, monitored every day after challenge (FIG. 8C)): ameliorated | survival ([2]; 2 μg IN, lethal dose 5×10^3 PFU PR8, all control mice died by Day 10): 8 of 10 and higher probability of survival | direct antiviral activity against SARS-COV-2 in vitro (SARS-COV-2 (USA/WA1)): no direct antiviral activity; also recorded: lack of a direct antiviral effect | cytokines/chemokines incl. IFN-γ, IL-5, IL-6, IP-10, TNF-α, MCP1, MIG (cytokines/chemokines): Marked upregulation | IFN-γ induction by ELISA (IFNγ): No evidence of IFN-γ induction; also recorded: minimal level | IFN-γ production in proliferative NK cells, T cells, iNKT cells (single-cell analysis) (lung mononuclear cells): apparent shift toward IFN-γ production | IFN-γ-secreting splenocytes (splenocytes [3]): increases | IFN-γ-secreting splenocyte numbers (splenocytes [4]): affects | inhibition of ic-SARS-COV-2-mNeon infection by supernatant of stimulated human iNKT cells [1]: display anti-viral activity; also recorded: significantly inhibit | inhibition by supernatant with neutralizing anti-human IFN-γ Ab added ([1]; anti-human IFN-γ antibody 1 μg/mL): inhibited; also recorded: completely abolished | toxicity [5]: lack of toxicity | toxicity [6]: lack of toxicity | thermostability (Thermostability (stated)): thermostable | adverse reactions [7]: did not lead to any adverse reactions | immunostimulatory activity compared with α-GalCer (mouse iNKT cells): even more potent immunostimulatory activity | immunostimulatory activity (human iNKT cells): potent stimulatory effect

CCCCCCCCCCCCCCCCCCCCCCCCCC(=O)NC(CO[C@H]1O[C@H](CO)[C@H](O)[C@H](O)[C@H]1O)[C@H](O)[C@H](O)CCCCCCCCCCCCCC (stereo partly drawn) [α-GalCer, N-[(3S,4R)-3,4-dihydroxy-1-[(2S,3R,4S,5R,6R)-3,4,5-trihydroxy-6-(hydroxymethyl)oxan-2-yl]oxyoctadecan-2-yl]hexacosanamide]
toxicity [8]: without evidence of toxicity

— US20250367225A1 (priority 2022, published 2025)
